We go through 16 molecules from the Deep4Chem optical property database.

This data set can be described thus: solvent given as SMILES.

Structures are written as SMILES.

In the case of `CC(C)(C)c1ccc(-c2c3cccc4c(-c5ccccc5)cc5c(-c6ccc(C(C)(C)C)cc6)c6cccc7c(-c8ccccc8)cc2c(c76)c5c43)cc1`, the emission maximum (in ClCCl) is given as 465 nm.
For the setting “in CCO”, `CCOC(=O)c1cc(C(=O)OCC)c2c(C)ccc(OC(=O)OC(C)(C)C)c2n1` gave an emission maximum of 505 nm.
The molecule `CC(C)(C)NC1=CC2=c3cc(NC(C)(C)C)c4nc(C(F)(F)C(F)(F)C(F)(F)F)nc5c(NC(C)(C)C)cc(c3c54)C3=CC(NC(C)(C)C)=C4N=C(C(F)(F)C(F)(F)C(F)(F)F)N=C1C4C32` (configuration not stated) yielded an emission maximum (in C1CCOC1) of 666 nm.
Consider `C(=C\c1ncnc2ccccc12)/c1ccc(-c2ccc(N(c3ccccc3)c3ccccc3)cc2)cc1`, for which the emission maximum is given as 461 nm (in C1CCCCC1); 572 nm (in C1CCOC1); 642 nm (in CC#N); 641 nm (in CS(C)=O); 610 nm (in ClCCl).
`CC1=[N+]2C(=C(c3ccccc3)c3ccc(/C=C/c4ccc(C(=C(c5ccccc5)c5ccccc5)c5ccccc5)cc4)n3[B-]2(F)F)C=C1` showed an emission maximum (in C1CCOC1) of 610 nm.
For the molecule `Nc1ccc(C#Cc2ccc3ccc4ccc(C#Cc5ccc(N)cc5)c5ccc2c3c45)cc1`, the emission maximum reads like this: (in C1COCCO1) 476 nm; (in CC(C)=O) 538 nm; (in CCCCCC) 444 nm; (in CCCCCCO) 534 nm; (in CCO) 540 nm; (in CCOC(C)=O) 506 nm. In addition, the emission maximum came out at 557 nm (in CO), 463 nm (in Cc1ccccc1) and 492 nm (in ClCCl).
Regarding `CCN(CC)c1ccc2cc(C#N)/c(=N\C(=O)c3ccc(C)cc3)oc2c1`, the emission maximum reads like this: (in CCO) 530 nm; (in ClCCl) 502 nm.
Take `CC1=C(c2ccccc2)Oc2cc3nc4ccccc4nc3c3cccc1c23`: the emission maximum (in ClCCl) amounted to 554 nm.
On to `CCCCN1c2ccc(/C=C/c3cc(=O)oc4cc(C)ccc34)cc2Sc2cc(/C=C/c3cc(=O)oc4cc(C)ccc34)ccc21`, for which, where the note is “in ClC(Cl)Cl”, the emission maximum came to 620 nm.
Consider `CCOC(=O)c1ccc(NC(=O)COc2cc3c4c([nH]c3c(C)c2C)C(=O)CCC4)cc1`, for which the emission maximum is recorded as 408.59 nm (in C1COCCO1); 422.39 nm (in CC#N); 464.31 nm (in CCO); 426.09 nm (in CS(C)=O); 468.86 nm (in O); 411.45 nm (in c1ccccc1).
For `O=S(=O)(c1ccc(N2c3ccccc3Oc3ccccc32)cc1)c1ccc(N2c3ccccc3Oc3ccccc32)cc1`, the emission maximum reads like this: (in C1COCCO1) 524 nm; (in CC(C)=O) 577 nm; (in Cc1ccccc1) 507 nm; (in ClC(Cl)Cl) 539 nm; (in c1cc(-n2c3ccccc3c3ccccc32)cc(-n2c3ccccc3c3ccccc32)c1) 505 nm.
Consider `CC1=CC(C)=[N+]2C1=C(C1=C3C(C)=CC(C)=[N+]3[B-](F)(F)n3c(C)cc(C)c31)c1c(C)cc(C)n1[B-]2(F)F`, for which, where the note is “in ClC(Cl)Cl”, the emission maximum was 588 nm.
`CCCCOc1ccc(-c2oc3cc4n(c3c2-c2ccc(OCCCC)cc2)[B-](F)(F)[N+]2=Cc3cc5oc(-c6ccc(OCCCC)cc6)c(-c6ccc(OCCCC)cc6)c5n3[B-](F)(F)[N+]2=C4)cc1` showed an emission maximum (in C1CCOC1) of 638 nm; an emission maximum (in CN(C)C=O) of 644 nm; an emission maximum (in CS(C)=O) of 647 nm; an emission maximum (in Cc1ccccc1) of 641 nm; an emission maximum (in ClC(Cl)Cl) of 646 nm; an emission maximum (in ClCCl) of 646 nm.
The molecule `C=CC1CN2CCC1CC2[C@@H](OCc1ccccc1)c1ccnc2ccc(O)cc12` (some centres not stated) gave an emission maximum (in C1CCOC1) of 358 nm; an emission maximum (in CC#N) of 362 nm; an emission maximum (in CCCC#N) of 361 nm; an emission maximum (in Cc1ccccc1) of 355 nm; an emission maximum (in ClCCl) of 363 nm.
For the setting “in CC(C)(C)c1ccc(-n2c3ccc([Si](c4ccccc4)(c4ccccc4)c4ccccc4)cc3c3cc([Si](c4ccccc4)(c4ccccc4)c4ccccc4)ccc32)cc1”, `Cc1cc(C)c(C)c(B(c2c(C)c(C)cc(C)c2C)c2c(C)c(C)c(N3c4ccccc4Oc4ccccc43)c(C)c2C)c1C` returned an emission maximum of 478 nm.
Consider `CC[N+]1(CC)CN2C(=N1)C(C(=O)O)=Cc1c(OC)ccc(OC)c12`, for which the emission maximum (in O) was 515 nm.
